Results reported in PMC9832345 (RSC Advances, 2023).

Tested on: third instar larvae of Spodoptera litura
Assay: Leaf-dip larvicidal assay
Assay type: in vivo
Settings: for Eating area (%): 96 h

Cc1cc(Cl)cc(S(C)(=O)=O)c1NC(=O)c1cc(Br)nn1-c1ncccc1Cl [Compound 8]
Eating area (%) (6.25 ppm): 0–5%
Eating area (%) (12.5 ppm): 0–5%

CNC(=O)c1cc(Cl)cc(C)c1NC(=O)c1cc(Br)nn1-c1ncccc1Cl [Chlorantraniliprole, chlorantraniliprole]
Eating area (%) (6.25 ppm): 0–5%
Eating area (%) (12.5 ppm): 0–5%
eating area (concentration not given): 0–5%
